Eleven compounds from patent publication US11384075B2, “Quinolinone compounds” (Janssen Pharmaceutica NV, priority 2017, dated 2022) can be followed below.

Molecules are shown by their SMILES.

Experiment [1] concerns the target T1, human FGFR3 V555M enzyme (cytoplasmic domain carrying V555M mutation) (Homo sapiens, UniProt P22607, V555M).
T1 construct: human FGFR3 V555M enzyme (cytoplasmic domain carrying V555M mutation, from Carna Biosciences); purchased Carna Biosciences
The experiment in a line: FGFR3 V555M mobility shift assay (enzymatic assay). In kind it is biochemical. Particulars: 30 μM ATP, 45 minutes at 30° C., Caliper EZ reader II. The protocol: FGFR3 V555M Mobility Shift Assay (Enzymatic Assay)
(§1) In a final reaction volume of 25 μL, 0.04 ng/μL human FGFR3 V555M enzyme (cytoplasmic domain carrying V555M mutation, from Carna Biosciences) was incubated with 30 μM ATP, 1 μM FL-peptide 30 substrate and 250 nL of testing compound (1% DMSO final) in assay buffer (100 mM HEPES pH 7.4, 10 mM MgCl2, 0.003% Brij35, 1 mM DTT). After incubation for 45 minutes at 30° C. the reaction was stopped with 10 μL of 0.5M EDTA pH 8.0, and then 25 μL of reaction mixture was transferred to reading plate and measured on Caliper EZ reader II. The substrate-product conversion rate was used as raw data for normalization and concentration-response curve (10 dose points with 4× serial dilution, starting with 10 μM) was plotted using Prism to calculate IC50 (M), pIC50 (−log IC50) and HillSlope value.

For experiment [2], the target named is T2, NIH/3T3 cells overexpressing FGFR3 WT-TACC3 fusion protein (Homo sapiens, UniProt P22607).
T2 construct: NIH/3T3 FGFR3 WT-TACC3 CTG (IC50); other: 72-hr incubation, CellTiter Glo, starting with 10 μM; fused on or other part: Q9Y6A5 (Transforming acidic coiled-coil-containing protein 3)
The experiment in a line: NIH/3T3 FGFR3 WT-TACC3 cell proliferation assay. The class given is cell-based. Particulars: 72-hr incubation, CellTiter Glo, starting with 10 μM; read-out: NIH/3T3 FGFR3 WT-TACC3 CTG (IC50). The procedure: NIH/3T3 FGFR3 WT-TACC3 Cell Proliferation Assay
(§2) In day 1, 90 μL of cell suspension (NIH/3T3 cells overexpressing FGFR3 WT-TACC3 fusion protein) (total 30,000 cells per well in growth medium (DMEM containing 1% Glutamax, 10% FBS and 1% Pen/Strep)) was seeded in a 96-well plate and then incubated overnight at 37° C. and 5% CO2. In day 2, 10 μL of growth medium containing 10-fold stock solution of testing compound was added into cell cultures (9 dose points with 4× serial dilution, starting with 10 μM, 0.1% DMSO final). After 72-hr incubation at 37° C. and 5% CO2, in day 5 a volume of 50 μL CellTiter Glo (CTG) reagent was added into cell-containing 96-well plate and the plate was incubated at room temperature for 10 minutes before RLUs (relative light unit) were measured on a microplate reader with luminescence detection module. The RLU value was normalized to survival % and concentration-response curve was plotted using Prism to calculate IC50 (M), pIC50 (−log IC50) and HillSlope value.

The target in experiment [3] is T3, human FGFR3 wild type enzyme (cytoplasmic domain) (Homo sapiens, UniProt P22607).
T3 construct: human FGFR3 wild type enzyme (cytoplasmic domain, from Carna Biosciences); purchased Carna Biosciences
The experiment in a line: FGFR3 wild type mobility shift assay (enzymatic assay). The class given is biochemical. The note with it: 75 μM ATP, 50 minutes at 30° C., Caliper EZ reader II. The procedure:
FGFR3 Wild Type Mobility Shift Assay (Enzymatic Assay)
as §1, with “FGFR3 wild type” for “FGFR3 V555M”, “(cytoplasmic domain,” for “(cytoplasmic domain carrying V555M mutation,”, “with 75” for “with 30”, “for 50” for “for 45”

The subject of experiment [4] is NIH/3T3 cells transfected with the same control vector. The experiment in a line: NIH/3T3 mock cell proliferation assay (counter assay, general toxicity). The class given is cell-based. The note with it: Mus musculus, NIH3T3, 72 h, 72-hr incubation, CellTiter Glo, starting with 30 μM; counter assay for general toxicity; read-out: NIH/3T3 MOCK CTG (IC50). The protocol: NIH/3T3 Mock Cell Proliferation Assay
as §2, with “cells transfected with the same control vector as in the above two proliferation assays)” for “cells overexpressing FGFR3 WT-TACC3 fusion protein)”, “with 3×” for “with 4×”, “with 30” for “with 10”, “μM, 0.3%” for “μM, 0.1%”
For orientation: Cellular ATP, detected with luciferase, serves as a proxy for viable cell number.

Experiment [5] has as its target T4, NIH/3T3 cells overexpressing FGFR3 V555M-TACC3 fusion protein (Homo sapiens, UniProt P22607, V555M, cells depend on it).
T4 construct: NIH/3T3 FGFR3 V555M-TACC3 CTG (IC50); other: 72-hr incubation, CellTiter Glo, starting with 10 μM; fused on or other part: Q9Y6A5 (Transforming acidic coiled-coil-containing protein 3)
The experiment in a line: NIH/3T3 FGFR3 V555M-TACC3 cell proliferation assay. The class given is cell-based. The note with it: 72-hr incubation, CellTiter Glo, starting with 10 μM; read-out: NIH/3T3 FGFR3 V555M-TACC3 CTG (IC50). The procedure: NIH/3T3 FGFR3 V555M-TACC3 Cell Proliferation Assay
as §2, with “V555M-TACC3” for “WT-TACC3”

T2 sequence (P22607 whole entry, change not shown, the tested form may be a part): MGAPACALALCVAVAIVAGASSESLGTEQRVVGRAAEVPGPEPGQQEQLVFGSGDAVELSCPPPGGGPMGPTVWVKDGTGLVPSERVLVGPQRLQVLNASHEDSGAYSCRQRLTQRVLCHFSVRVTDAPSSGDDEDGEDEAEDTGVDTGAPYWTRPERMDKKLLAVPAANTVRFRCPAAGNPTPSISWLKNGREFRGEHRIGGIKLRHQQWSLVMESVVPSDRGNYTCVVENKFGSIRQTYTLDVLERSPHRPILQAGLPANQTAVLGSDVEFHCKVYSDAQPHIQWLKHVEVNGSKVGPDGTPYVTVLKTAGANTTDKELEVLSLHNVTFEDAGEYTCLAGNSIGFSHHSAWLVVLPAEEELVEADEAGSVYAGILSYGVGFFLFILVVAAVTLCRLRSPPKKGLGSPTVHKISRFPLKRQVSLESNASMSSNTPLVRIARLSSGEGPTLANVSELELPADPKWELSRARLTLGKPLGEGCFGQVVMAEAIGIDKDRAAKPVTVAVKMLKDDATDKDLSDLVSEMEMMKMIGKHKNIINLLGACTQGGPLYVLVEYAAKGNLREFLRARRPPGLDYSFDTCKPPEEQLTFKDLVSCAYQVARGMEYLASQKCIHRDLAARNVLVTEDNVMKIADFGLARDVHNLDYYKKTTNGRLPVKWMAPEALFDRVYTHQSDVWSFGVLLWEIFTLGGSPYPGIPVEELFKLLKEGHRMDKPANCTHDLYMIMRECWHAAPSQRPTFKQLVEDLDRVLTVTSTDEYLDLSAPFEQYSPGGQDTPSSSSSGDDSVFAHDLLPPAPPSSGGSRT
T3 sequence (P22607 397-806 limits assumed): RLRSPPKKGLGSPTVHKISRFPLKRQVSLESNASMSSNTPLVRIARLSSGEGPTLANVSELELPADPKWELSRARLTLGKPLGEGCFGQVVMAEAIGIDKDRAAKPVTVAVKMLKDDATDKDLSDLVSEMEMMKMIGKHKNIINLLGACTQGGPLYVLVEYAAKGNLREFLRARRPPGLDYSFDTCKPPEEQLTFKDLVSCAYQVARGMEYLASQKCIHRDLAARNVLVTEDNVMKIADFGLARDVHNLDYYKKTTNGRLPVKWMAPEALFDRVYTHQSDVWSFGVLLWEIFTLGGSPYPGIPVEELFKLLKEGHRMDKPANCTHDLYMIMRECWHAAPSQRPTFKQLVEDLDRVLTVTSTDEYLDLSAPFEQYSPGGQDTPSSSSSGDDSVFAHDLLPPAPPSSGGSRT
T4 sequence (P22607 whole entry V555M, the tested form may be a part): as the sequence (P22607 whole entry, change not shown, the tested form may be a part) above, with V555M counted along it
T1 sequence (P22607 397-806 V555M limits assumed): as the sequence (P22607 397-806 limits assumed) above, with V159M counted along it

In the case of `COC(=O)C1CN(c2ccc3nc(-c4c(N[C@@H](C)c5ccccn5)c5ccccc5[nH]c4=O)[nH]c3c2)CCO1` (mixture of isomers) [Compound 59, (Rac)-methyl 4-(2-(2-oxo-4-(((S)-1-(pyridin-2-yl)ethyl)amino)-1,2-dihydroquinolin-3-yl)-1H-benzo[d]imidazol-6-yl)morpholine-2-carboxylate], the IC50 in experiment [1] was found to be 0.00036 µM; in experiment [3] it was 0.000788 µM; in experiment [4], 7.29 µM. Besides, the figures for the GI50 in experiment [2] and in experiment [5] were 0.0319 µM and 0.0617 µM, respectively.

Consider `C[C@H](Nc1c(-c2nc3ccc(N4CCOC(C(=O)O)C4)cc3[nH]2)c(=O)[nH]c2ccccc12)c1ccccn1` (mixture of isomers) [Compound 60, (Rac)-4-(2-(2-oxo-4-(((S)-1-(pyridin-2-yl)ethyl)amino)-1,2-dihydroquinolin-3-yl)-1H-benzo[d]imidazol-6-yl)morpholine-2-carboxylic acid], for which the IC50 in experiment [1] is 0.000603 µM; in experiment [3], 0.00118 µM; in experiment [4] it was above 30 µM. Also, the GI50 in experiment [2] came out at 1.28 µM; in experiment [5] it was 1.62 µM.

As to `CC(Nc1c(-c2nc3ccc(N4CCN(C)CC4)cc3[nH]2)c(=O)[nH]c2ccccc12)c1cocn1` (single isomer, unassigned) [Compound 11a, (S*)-3-(6-(4-methylpiperazin-1-yl)-1H-benzo[d]imidazol-2-yl)-4-((1-(oxazol-4-yl)-ethyl)amino)quinolin-2(1H)-one], the IC50 in experiment [1] was determined as 0.012 µM; in experiment [3], 0.0326 µM.

For `CC(Nc1c(-c2nc3ccc(N4CCN(C)CC4)c(F)c3[nH]2)c(=O)[nH]c2ccccc12)c1ccccn1` (single isomer, unassigned) [Compound 13b, (S*)-3-(7-fluoro-6-(4-methylpiperazin-1-yl)-1H-benzo[d]imidazol-2-yl)-4-((1-(pyridin-2-yl)ethyl)amino)quinolin-2(1H)-one], the IC50 came out at 0.000449 µM in experiment [1], 0.00105 µM in experiment [3] and 1.74 µM in experiment [4]. Moreover, the GI50 in experiment [2] stood at 0.00346 µM; in experiment [5], 0.00434 µM.

As for `CC(Nc1c(-c2nc3ccc(N4C[C@@H](C)O[C@@H](C)C4)cc3[nH]2)c(=O)[nH]c2ccccc12)c1ncccn1` (single isomer, unassigned) [Compound 22a, 3-(6-((2S,6R)-2,6-dimethylmorpholino)-1H-benzo[d]imidazol-2-yl)-4-(((S*)-1-(pyrimidin-2-yl)ethyl)amino)quinolin-2(1H)-one], the IC50 in experiment [1] stood at 0.000421 µM; in experiment [3], 0.000445 µM; in experiment [4], 6.39 µM. Besides, the GI50 amounted to 0.0133 µM in experiment [2] and 0.00648 µM in experiment [5].

`CC(Nc1c(-c2nc3ccc(N4C[C@@H](C)O[C@H](C)C4)cc3[nH]2)c(=O)[nH]c2ccccc12)c1ncccn1` (single isomer, unassigned) [Compound 37b, 3-(6-((2R,6R)-2,6-dimethylmorpholino)-1H-benzo[d]imidazol-2-yl)-4-(((R*)-1-(pyrimidin-2-yl)ethyl)amino)quinolin-2(1H)-one]: the IC50 amounted to 0.0202 µM in experiment [1] and 0.0293 µM in experiment [3].

On to `CC(Nc1c(-c2nc3ccc(N4CCN(CCC(F)(F)F)CC4)cc3[nH]2)c(=O)[nH]c2ccccc12)c1ncccn1` (single isomer, unassigned) [Compound 41b, (R*)-4-((1-(pyrimidin-2-yl)ethyl)amino)-3-(6-(4-(3,3,3-trifluoropropyl)piperazin-1-yl)-1H-benzo[d]imidazol-2-yl)quinolin-2(1H)-one], for which the IC50 in experiment [1] is 0.0194 µM; in experiment [3], 0.0394 µM.

As to `CC(C)c1ccnc(C(C)Nc2c(-c3nc4ccc(N5CCOCC5)cc4[nH]3)c(=O)[nH]c3ccccc23)n1` (single isomer, unassigned) [Compound 49a, (S*)-4-((1-(4-isopropylpyrimidin-2-yl)ethyl)amino)-3-(6-morpholino-1H-benzo[d]-imidazol-2-yl)quinolin-2(1H)-one], the IC50 in experiment [1] stood at 0.00707 µM; in experiment [3], 0.027 µM.

As for `C[C@H](Nc1c(-c2nc3ccc(N4CCOCC4)cc3[nH]2)c(=O)[nH]c2ccccc12)c1nccc(C2CC2)n1` (single isomer, unassigned) [Compound 50a, (S*)-4-((1-(4-cyclopropylpyrimidin-2-yl)ethyl)amino)-3-(6-morpholino-H-benzo[d]-imidazol-2-yl)quinolin-2(1H)-one], the IC50 in experiment [1] was 0.00875 µM; in experiment [3], 0.0489 µM.

On to `CC(Nc1c(-c2nc3ccc(-c4cnn(C)c4)cc3[nH]2)c(=O)[nH]c2ccccc12)c1ncccn1` (single isomer, unassigned) [Compound 53b, (R*)-3-(6-(1-methyl-1H-pyrazol-4-yl)-1H-benzo[d]imidazol-2-yl)-4-((1-(pyrimidin-2-yl)ethyl)amino)quinolin-2(1H)-one], for which the IC50 in experiment [1] is 0.0153 µM; in experiment [3], 0.0352 µM.

For `CC(Nc1c(-c2nc3cc(C(F)(F)F)c(N4CCC(C(=O)OC(C)(C)C)CC4)cc3[nH]2)c(=O)[nH]c2ccccc12)c1ncccn1` (single isomer, unassigned) [Compound 57, (S*)-tert-butyl 1-(2-(2-oxo-4-((1-(pyrimidin-2-yl)ethyl)amino)-1,2-dihydroquinolin-3-yl)-5-(trifluoromethyl)-1H-benzo[d]imidazol-6-yl)piperidine-4-carboxylate], the IC50 was found to be 0.0192 µM in experiment [1] and 0.0619 µM in experiment [3].
